Type in all cases: in vivo
Experiment [1] relates to two spotted spidermite (Tetranychus urticae). Nature of the experiment: Tetranychus urticae test; OP-resistant (TETRUR spray application). Particulars: 144 h, read-out: Efficacy % (mortality). As for the experimental part:
Test; OP-Resistant (TETRUR Spray Application)
(§1) • Solvent: 78.0 parts by weight acetone • 1.5 parts by weight dimethylformamide • Emulsifier: 0.5 parts by weight alkylarylpolyglycolether
To produce a suitable preparation of active compound, 1 part by weight of active compound is mixed with the stated amount of solvent and emulsifier, and the concentrate is diluted with emulsifier-containing water to the desired concentration. French beans (Phaseolus vulgaris) which are heavily infested with all stages of the two spotted spidermite (Tetranychus urticae), are sprayed with a preparation of the active ingredient at the desired concentration.
After 6 days mortality in % is determined. 100% means that all spider mites have been killed and 0% means that none of the spider mites have been killed.

The test system of experiment [2] is green peach aphid (Myzus persicae). Nature of the experiment: Myzus persicae test (MYZUPE spray application). Conditions: foliar, 144 h, spray on Chinese cabbage leaf disks, after 6 days, read-out: Efficacy % (mortality). As for the experimental part: Test; (MYZUPE Spray Application)
as §1
To produce a suitable preparation of active compound, 1 part by weight of active compound is mixed with the stated amount of solvent and emulsifier, and the concentrate is diluted with emulsifier-containing water to the desired concentration. Chinese cabbage (Brassica pekinesis) leaf-disks infected with all instars of the green peach aphid (Myzus persicae), are sprayed with a preparation of the active ingredient at the desired concentration.
After 6 days mortality in % is determined. 100% means that all aphids have been killed; 0% means that none of the aphids have been killed.

For experiment [3], the system named is fall armyworm larvae (Spodoptera frugiperda). The experiment in a line: Spodoptera frugiperda test (SPODFR spray application). Conditions: 168 h, spray on maize leaf sections, after 7 days, read-out: Efficacy % (mortality).
Description: Test (SPODFR Spray Application)
as §1
To produce a suitable preparation of the active compound, 1 part by weight of active compound is mixed with the stated amount of solvent and emulsifier, and the concentrate is dilutes with emulsifier-containing water to the desired concentration. Maize (Zea mais) leaf sections are sprayed with a preparation of the active ingredient of the desired concentration. Once dry, the leaf sections are infested with fall armyworm larvae (Spodoptera frugiperda).
After 7 days mortality in % is determined. 100% means that all caterpillars have been killed and 0% means that none of the caterpillars have been killed.

Experiment [4] concerns mustard beetle larvae (Phaedon cochleariae). Nature of the experiment: Phaedon cochleariae test (PHAECO spray application). Conditions: foliar, 168 h, spray on Chinese cabbage leaf disks, after 7 days, read-out: Efficacy % (mortality). As for the experimental part: Test; (PHAECO Spray Application)
• Solvent: 78.0 parts by weight of acetone • 1.5 parts by weight of dimethylformamide • Emulsifier: 0.5 parts by weight of alkylaryl polyglycolether
To produce a suitable preparation of active compound, 1 part by weight of active compound is mixed with the stated amount of solvent and emulsifier, and the concentrate is diluted with emulsifier-containing water to the desired concentration. Chinese cabbage (Brassica pekinesis) leaf-disks are sprayed with a preparation of the active ingredient of the desired concentration. Once dry, the leaf disks are infested with mustard beetle larvae (Phaedon cochleariae).
After 7 days mortality in % is determined. 100% means that all beetle larvae have been killed and 0% means that none of the beetle larvae have been killed.

The next experiment concerns Meloidogyne incognita. The experiment in a line: Meloidogyne test (MELGIN). Particulars: 20 ppm, sand with salad seeds, after 14 days. As for the experimental part:
Meloidogyne Test (MELGIN)
• Solvent: 80.0 parts by weight of acetone
To produce a suitable preparation of active compound, 1 part by weight of active compound is mixed with the stated amount of solvent, and the concentrate is diluted with emulsifier-containing water to the desired concentration.
Vessels are filled with sand, a solution of the active ingredient, a suspension containing eggs and larvae of Meloidogyne incognita and salad seeds. The salade seeds germinate and the seedlings grow. Galls develop in the roots.
After 14 days the nematicidal activity is determined on the basis of the percentage of gall formation. 100% means that no galls were found; 0% means that the number of galls found on the roots of the treated plants was equal to that in untreated control plants.

Read-outs that look alike come from different tables or passages of the source.

Data on 2 compounds can be found in patent US8835657B2, “Cyclopentanedione compounds and their use as insecticides, acaricides and/or fungicides” (Bayer CropScience AG, priority 2009, dated 2014).

The term mortality denotes the share of the test organisms that died.

Take `CCOC(=O)OC1=C(c2cc(-c3ccc(Cl)cc3)ccc2C)C(=O)C2C3CCC(O3)C12` (stereo not drawn) [Ex No. P 12]: the mortality at 500 g/ha in experiment [1] is 100%; in experiment [2] it was 90%; in experiment [3] it was 100%; in experiment [4] (500 g/ha), 83%.
Regarding `Cc1ccc(-c2ccc(Cl)cc2)cc1C1=C(O)[C@H]2[C@@H](C1=O)[C@@H]1CC[C@H]2O1` [Ex No. T 1], the mortality at 500 g/ha was 100% in experiment [1] (TETRUR, OP-resistant, 500 g/ha, spray on French beans, after 6 days); 90% in experiment [2]; 100% in experiment [3]. In addition, the “Efficacy % (nematicidal activity, gall formation)” value in the experiment with Meloidogyne incognita amounted to 100%. In experiment [4] (100 g/ha), the mortality at 100 g/ha came out at 83%.
